Data set [1] is classed as in vivo, mouse.
Data set [2] has as its system CYP3A4.
For data set [3] the following is noted: cited from earlier work.
A further data set relates to SLCO1B1. The note with it: cited from earlier work.
The nature of data set [4]: Microsomal stability in pooled human liver microsomes. The note with it: 1 μM, 0.2 mg/mL pooled HLM, presence and absence of NADPH, up to 50 min. It counts as in vitro ADME.
Data set [5] in a line: Apparent kinetics of OH-vemurafenib formation in HLM. It counts as in vitro ADME, human.
Data set [6] in a line: Apparent kinetics of OH-vemurafenib formation in MLM. It counts as in vitro ADME, mouse. The note with it: Hill equation fit.
Data set [7] has as its target T1, CYP3A4 (Homo sapiens, UniProt P08684). Briefly: biochemical.
Target sequence in this assay (P08684 2-503): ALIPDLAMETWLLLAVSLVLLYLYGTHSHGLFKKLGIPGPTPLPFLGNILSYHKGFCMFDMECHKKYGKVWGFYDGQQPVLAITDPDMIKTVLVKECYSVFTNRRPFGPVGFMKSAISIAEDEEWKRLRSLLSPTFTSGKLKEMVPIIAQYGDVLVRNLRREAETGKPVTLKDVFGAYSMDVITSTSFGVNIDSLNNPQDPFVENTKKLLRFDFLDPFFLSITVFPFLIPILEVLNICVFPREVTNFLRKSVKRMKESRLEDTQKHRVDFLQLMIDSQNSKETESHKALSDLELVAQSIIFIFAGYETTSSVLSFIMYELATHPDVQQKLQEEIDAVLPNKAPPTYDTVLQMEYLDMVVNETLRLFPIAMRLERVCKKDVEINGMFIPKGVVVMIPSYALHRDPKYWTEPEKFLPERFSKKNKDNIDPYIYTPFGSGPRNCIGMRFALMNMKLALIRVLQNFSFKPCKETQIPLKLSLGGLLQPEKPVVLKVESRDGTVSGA
The subject of a further data set is DPX2 cells. Briefly: Toxicity in DPX2 cells in the PXR-transactivation assay. The note with it: top two concentrations (41.67 and 125 μM), 48 hours. Type of data set: cell-based.
Data set [8] is described as follows: Vemurafenib pharmacokinetics in huPXR/huCAR/huCYP3A4/3A7 mice. The note with it: for AUC: AUCall of vemurafenib. It counts as in vivo, mouse.
Data set [9] in a line: Vemurafenib pharmacokinetics in huPXR/huCAR mice. Type of data set: in vivo. The note with it: male, mouse, whole blood, po, 50 mg/kg, AUCall of vemurafenib, RIF pre-treatment, Figure 3A.
The test system of a further data set is Abcb1a. Briefly: TaqMan RT-PCR of small intestinal Abcb1a mRNA. It counts as in vivo, mouse. (In general: In qPCR the cycle at which signal appears reflects the starting amount.)
The test system of a further data set is Abcb1b. Briefly: TaqMan RT-PCR of small intestinal Abcb1b mRNA. It counts as in vivo, mouse.
Data set [10] deals with CYP3A4. Briefly: TaqMan RT-PCR of small intestinal CYP3A4 mRNA. It counts as in vivo, mouse. The note with it: MBP vemurafenib 100 mg/kg b.i.d. four days.
For another data set, the system named is Cyp2b. Briefly: Western blot of hepatic microsomal Cyp2b. Type of data set: in vivo, mouse. The note with it: huPXR/huCAR/huCYP3A4/3A7 mice. Background: Immunoblotting shows a protein as a band on a membrane.
In the next data set the test system is Cyp1a. Briefly: Western blot of hepatic microsomal Cyp1a. Type of data set: in vivo, mouse. The note with it: huPXR/huCAR/huCYP3A4/3A7 mice, MBP vemurafenib 100 mg/kg b.i.d. four days.
Data set [11] is classed as in vivo. The note with it: huPXR/huCAR/huCYP3A4/3A7, mouse, whole blood, po, 100 mg/kg.
For data set [12], the target named is T1, CYP3A4.
Target sequence in this assay (P08684 whole entry): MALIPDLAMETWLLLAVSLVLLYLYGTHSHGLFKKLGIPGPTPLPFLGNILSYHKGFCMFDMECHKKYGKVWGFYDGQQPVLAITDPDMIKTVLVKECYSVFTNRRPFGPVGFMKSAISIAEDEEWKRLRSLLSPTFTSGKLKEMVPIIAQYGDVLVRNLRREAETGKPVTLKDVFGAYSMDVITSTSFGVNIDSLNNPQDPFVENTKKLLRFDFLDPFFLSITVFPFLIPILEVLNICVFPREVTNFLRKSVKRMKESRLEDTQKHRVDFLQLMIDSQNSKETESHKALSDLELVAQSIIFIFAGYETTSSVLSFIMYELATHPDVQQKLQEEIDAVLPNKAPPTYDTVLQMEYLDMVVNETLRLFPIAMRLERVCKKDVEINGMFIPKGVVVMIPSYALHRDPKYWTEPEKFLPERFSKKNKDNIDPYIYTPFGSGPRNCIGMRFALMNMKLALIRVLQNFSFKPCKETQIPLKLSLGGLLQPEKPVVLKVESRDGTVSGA
The target of data set [13] is T2, CYP2C9 (Homo sapiens, UniProt P11712). The note with it: 60 μM compound, 400 pmol/mL enzyme, 15 min.
T2 sequence (P11712 whole entry): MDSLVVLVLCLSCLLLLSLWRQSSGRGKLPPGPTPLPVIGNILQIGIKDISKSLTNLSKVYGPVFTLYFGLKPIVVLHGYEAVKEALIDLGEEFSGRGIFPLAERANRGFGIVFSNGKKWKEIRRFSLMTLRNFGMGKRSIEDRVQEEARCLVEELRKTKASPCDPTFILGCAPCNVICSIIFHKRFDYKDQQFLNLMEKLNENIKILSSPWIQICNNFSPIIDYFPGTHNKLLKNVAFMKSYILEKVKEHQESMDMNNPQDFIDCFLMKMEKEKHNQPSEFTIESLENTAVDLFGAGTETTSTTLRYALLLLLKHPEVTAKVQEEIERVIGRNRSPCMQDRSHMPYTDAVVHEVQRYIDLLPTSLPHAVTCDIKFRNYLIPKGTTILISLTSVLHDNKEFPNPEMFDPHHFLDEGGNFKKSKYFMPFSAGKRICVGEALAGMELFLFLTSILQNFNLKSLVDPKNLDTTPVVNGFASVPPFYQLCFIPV
Another data set concerns COLO205 xenografts. The note with it: cited from earlier work.
The conditions of data set [14]: read-out: Cmax (mean) in patients at steady state; cited from earlier work.
Data set [15] deals with BRAF^V600E-positive metastatic melanoma. The note with it: single agent, all patients with BRAF V600E-positive metastatic melanoma; cited from earlier work.
The subject of data set [16] is CYP3A4. The note with it: patients at steady state; cited from earlier work.
The next data set relates to CYP1A2. The note with it: patients at steady state; cited from earlier work.
A further data set deals with CYP2D6. The note with it: patients at steady state; cited from earlier work.
For data set [17] the following is noted: crystalline form, physiological pH; cited from earlier work.
For another data set, the system named is ABCB1. The note with it: MDCK-ABCB1 cell line; cited from earlier work.
Data set [18] addresses T2, CYP2C9. Briefly: in vitro. The note with it: recombinant CYP2C9, pH 7.4.
The next data set deals with T3, PXR (Homo sapiens, UniProt O75469).
T3 sequence (O75469 1-434): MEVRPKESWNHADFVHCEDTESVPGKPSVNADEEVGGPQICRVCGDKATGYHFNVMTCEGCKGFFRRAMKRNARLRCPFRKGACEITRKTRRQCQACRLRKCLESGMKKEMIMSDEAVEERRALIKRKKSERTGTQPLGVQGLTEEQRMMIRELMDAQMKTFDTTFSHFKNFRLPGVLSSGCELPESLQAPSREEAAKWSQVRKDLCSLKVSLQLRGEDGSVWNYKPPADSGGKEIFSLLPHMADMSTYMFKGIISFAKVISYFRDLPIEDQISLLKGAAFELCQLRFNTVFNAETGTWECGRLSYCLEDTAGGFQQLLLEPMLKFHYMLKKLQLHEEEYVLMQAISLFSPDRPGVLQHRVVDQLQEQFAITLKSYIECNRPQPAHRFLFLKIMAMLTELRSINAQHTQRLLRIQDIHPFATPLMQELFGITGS
Briefly: PXR-transactivation assay in DPX2 cells.

Data set [19] concerns OH-vemurafenib formation in pooled HLM. Briefly: Inhibition of OH-vemurafenib formation in pooled HLM by CYP inhibitors. Type of data set: in vitro ADME, human. The note with it: pooled HLM 0.2 mg/mL, 60 μM vemurafenib, 10 min; 1 μM ketoconazole, 2 μM sulfaphenazole.
The test system of another data set is Abcg2. Briefly: TaqMan RT-PCR of small intestinal Abcg2 mRNA. Type of data set: in vivo, mouse. The note with it: huPXR/huCAR/huCYP3A4/3A7 mice treated with RIF.
[20] abbreviates: MBP vemurafenib 100 mg/kg b.i.d. four days.
Setting [21] is: huPXR/huCAR/huCYP3A4/3A7 mice treated with RIF.

Entries after “also recorded” stand apart in the source; their conditions may differ. Counter-ions that a name gives are not always drawn. Like-named read-outs stand apart in the source and are kept apart here. Where only a bound is given, the exact number is not on record here.

For `CC(=O)[C@H]1[C@H](C#N)C[C@H]2[C@@H]3CC=C4C[C@@H](O)CC[C@]4(C)[C@H]3CC[C@@]21C` [PCN, 5-pregnenolone-3β-ol-20-one-16α-carbonitrile], the “Effect of PCN pre-treatment on vemurafenib clearance” value in data set [1] (PCN 10 mg/kg i.p. three days, Cyp3a null and huCYP3A4/3A7 animals) is listed as “enhanced clearance equally well”. Moreover, in the data set on CYP3A4 [2] (huCYP3A4/3A7 mice, PCN three days), the “Hepatic CYP3A4 protein (Western blot)” value is given as “effectively induced”.
“monohydroxy-vemurafenib [OH-vemurafenib]”: in [3] (48 – 96 hr samples), the “OH-vemurafenib as share of the total dose” value was 3.4% and the “OH-vemurafenib share of recovered radioactivity” value is 13.7%.
Consider `COc1cc2c(cc1OC)CN(CCc1ccc(NC(=O)c3cccc4c(=O)c5cccc(OC)c5[nH]c34)cc1)CC2` [elacridar, Elacridar hydrochloride], for which the “Inhibition of SLCO1B1” value with SLCO1B1 was “known to inhibit”.
Take `CCCS(=O)(=O)Nc1ccc(F)c(C(=O)c2c[nH]c3ncc(-c4ccc(Cl)cc4)cc23)c1F` [vemurafenib, Vemurafenib]: in data set [4], the Metabolic stability result is given as “highly stable”. Further, the “Vmax for HLM relative to MLM” value in data set [5] (HLM vs MLM) is recorded as “approximately 10 fold”. The “S50 of OH-vemurafenib formation” value in [5] (HLM, Hill equation fit) came to 23.2 ± 0.8 µM; in data set [6], 23.8 ± 4.9 µM. The “Vmax of OH-vemurafenib formation” value in data set [5] (HLM, Hill equation fit) is reported as 4879 ± 108 peak area/min/mg; in data set [6], 467 ± 54 peak area/min/mg. This compound registered an IC50 at CYP3A4 [7] of 14.9 µM. For the same compound, the “Toxicity to DPX2 cells” value in the data set with DPX2 cells is “highly toxic”. Further, the “Decrease in Cmax and AUCall and increase in CL in huCYP3A4/3A7 PCN group relative to Cyp3aKO/Cyp3a13+/+ PCN group” value in [1] (vemurafenib 50 mg/kg oral after PCN for three days) is listed as “not statistically significant”. Moreover, the AUC in data set [8] (male, huPXR/huCAR/huCYP3A4/3A7, mouse, whole blood, po, 50 mg/kg, RIF alone, Figure 5A) came to 90 ± 13 µg·h/mL; in data set [8] (male, huPXR/huCAR/huCYP3A4/3A7, mouse, whole blood, po, 50 mg/kg, huPXR/huCAR/huCYP3A4/3A7 mice, RIF pre-treatment, Figure 3A) it was 121 ± 18 µg·h/mL; in data set [8] (male, huPXR/huCAR/huCYP3A4/3A7, mouse, whole blood, po, 50 mg/kg, huPXR/huCAR/huCYP3A4/3A7 mice, vehicle pre-treatment, Figure 3A), 432 ± 169 µg·h/mL; in data set [8] (male, huPXR/huCAR/huCYP3A4/3A7, mouse, whole blood, po, 50 mg/kg, vehicle (CO) alone, Figure 5A), 391 ± 112 µg·h/mL; in data set [8] (male, huPXR/huCAR/huCYP3A4/3A7, mouse, whole blood, po, 50 mg/kg, vehicle (CO) then elacridar, Figure 5A), 684 ± 85 µg·h/mL; in data set [9] it was 75 ± 33 µg·h/mL. The same compound came in with an AUC in [11] of 1140 ± 242 µM·h. Besides, the maximum concentration (Cmax) in data set [8] (male, huPXR/huCAR/huCYP3A4/3A7, mouse, whole blood, po, 50 mg/kg, Cmax of vemurafenib, vehicle (CO) then elacridar, Figure 5A) is 37800 ± 3500 ng/mL; in data set [11] it was 122 ± 19.7 µM; in [14] it was 86 ± 32 µM. Also, the “Change in small intestinal Abcb1a mRNA expression” value in the data set on Abcb1a (setting [20]) is reported as “no change”. Further, the “Change in small intestinal Abcb1b mRNA expression” value in the data set on Abcb1b (setting [20]) was “no change”. Also, the “Change in small intestinal CYP3A4 mRNA expression” value with CYP3A4 [10] is on record as “no change”. Besides, in the data set with Cyp2b, the “Hepatic Cyp2b / Cyp2b10 protein (Western blot)” value is listed as “weak induction”. In the data set with Cyp1a, the “Hepatic Cyp1a protein (Western blot)” value is recorded as “moderate induction”. Moreover, the “Generation of OH-vemurafenib by recombinant CYP” value is recorded as “formed” on CYP3A4 [12] (60 μM compound, 400 pmol/mL enzyme, 15 min) and “formed” on CYP2C9 [13]. For the same compound, the “Affinity for vemurafenib, CYP3A4 relative to CYP2C9” value at CYP3A4 [12] (S50 CYP3A4 vs CYP2C9) was found to be 2 fold. For the same compound, in the data set on CYP3A4 [2] (huPXR/huCAR/huCYP3A4/3A7 mice), the “Hepatic CYP3A4 protein (Western blot)” value is on record as “weak induction”. Besides, in the data set on COLO205 xenografts, the “AUC0-24 necessary to effect regression of COLO205 xenografts” value was 300 µM·h. The Objective tumour response in data set [15] was 48%. For the same compound, the “Recovered radioactivity in the parental form” value is on record as not below 94% in [3] (0 – 48 hr period) and 55.5 ± 20.1% in data set [3] (48 – 96 hr period). Besides, the “Time for 95% of the radioactive dose to be recovered” value in data set [3] was 18 days. The “Total dose recovered within the first 96 hours” value in [3] is given as 68.5%. Also, the “Radioactive dose recovered in faeces” value in [3] (over 18 days) is reported as 94%. For the same compound, in [3] (over 18 days), the “Radioactive dose recovered in urine” value is reported as 1%. Besides, the “Decrease in AUC0-last of the CYP3A4-specific probe midazolam” value in the data set on CYP3A4 [16] is 39%. For the same compound, the “Increase in AUC0-last of the CYP1A2 probe caffeine” value with CYP1A2 is given as 160%. Further, the “Increase in AUC0-last of the CYP2D6 probe dextromethorphan” value with CYP2D6 is 47%. Further, in data set [17], the Aqueous solubility was 0.01 to 10 µg/mL. Besides, the ABCB1 interaction result in the data set with ABCB1 is “both an ABCB1 substrate and inhibitor”. For the same compound, the Km at 0.15 h at CYP2C9 [18] was 20.4 ± 1.7 µM. This compound also gave an EC50 on PXR of 8.13 µM. In addition, the “EMAX of PXR activation” value at PXR (DPX2 cells, 48 hours, fold change vs vehicle control) is 8.54 fold.
On to `Nc1ccc(S(=O)(=O)Nc2ccnn2-c2ccccc2)cc1` [sulfaphenazole], for which the “Inhibition of OH-vemurafenib formation” value in data set [19] is “partial decrease; also recorded: small but statistically significant decrease”.
`CO[C@H]1/C=C/O[C@@]2(C)Oc3c(C)c(O)c4c(O)c(c(/C=N/N5CCN(C)CC5)c(O)c4c3C2=O)NC(=O)/C(C)=C\C=C\[C@H](C)[C@H](O)[C@@H](C)[C@@H](O)[C@@H](C)[C@H](OC(C)=O)[C@@H]1C` [rifampicin]: the “Increase in mRNA for Abcb1a in the small intestine” value with Abcb1a (setting [21]) is listed as 4.7 fold. In the data set with Abcb1b (setting [21]), the “Change in mRNA for Abcb1b in the small intestine” value is “no change”. Moreover, the “Change in mRNA for Abcg2 in the small intestine” value in the data set with Abcg2 is “no change”.
`CC(=O)N1CCN(c2ccc(OCC3COC(Cn4ccnc4)(c4ccc(Cl)cc4Cl)O3)cc2)CC1` (stereo not drawn) [ketoconazole]: the “Inhibition of OH-vemurafenib formation” value in data set [19] is “significantly inhibited”.
Take `CCC1(c2ccccc2)C(=O)NC(=O)NC1=O` [PB, Phenobarbital]: in data set [8] (PB 80 mg/kg i.p. for three days, huPXR/huCAR/huCYP3A4/3A7 mice), the “Effect of PB pre-treatment on vemurafenib kinetic parameters” value is listed as “no effect”. In addition, the “Hepatic Cyp2b / Cyp2b10 protein (Western blot)” value in the data set on Cyp2b is “induction”. Moreover, the “Hepatic CYP3A4 protein (Western blot)” value in the data set with CYP3A4 [2] (mouse, in vivo) is reported as “weakly inducing”.

By IC50 is commonly meant the concentration at which inhibition is half-maximal. Higher therefore signals lower potency. What is called AUC is concentration integrated over time. As a reminder, the Cmax is the highest concentration seen after dosing. Usually Aqueous solubility stands for how much of the substance goes into solution per volume. A word on the Km: it is the substrate concentration at which the rate is half of its maximum. By EC50 is commonly meant the concentration needed to bring the measured effect to its halfway point. A lower EC50 goes with a more potent agent.

The record behind these values is PMC4634205 (Cancer research, 2015).
